Each block holds one compound with its values, some of them ahead of it.
Tests used:
HT-29 = test: Cytotoxicity against human HT-29 cells assessed as reduction in cell viability incubated for 48 hrs by MTT assay; type: functional, cell-based; settings: HT-29, 48 h
SW480 = test: Cytotoxicity against human SW480 cells assessed as reduction in cell viability incubated for 48 hrs by MTT assay; type: functional, cell-based; settings: SW480, 48 h
HCT-116 = test: Cytotoxicity against human HCT-116 cells assessed as reduction in cell viability incubated for 48 hrs by MTT assay; type: functional, cell-based; settings: HCT-116, 48 h
U2OS = test: Cytotoxicity against human U2OS cells assessed as reduction in cell viability incubated for 48 hrs by MTT assay; type: functional, cell-based
HepG2 = test: Cytotoxicity against human HepG2 cells assessed as reduction in cell viability incubated for 48 hrs by MTT assay; type: functional, cell-based; settings: HepG2, 48 h
MDA-MB-231 = test: Cytotoxicity against human MDA-MB-231 cells assessed as reduction in cell viability incubated for 48 hrs by MTT assay; type: functional, cell-based; settings: MDA-MB-231, 48 h
A549 = test: cells; settings: Homo sapiens, A549, 48 h

- IC50 (A549): 16.8 µM
Structure (SMILES): C/C1=C\CC[C@@]2(C)O[C@H]2[C@H]2OC(=O)/C(=C\c3ccc4ncccc4c3)[C@@H]2CC1
- IC50 (HT-29): 6.66 µM
- IC50 (SW480): 2.71 µM
- IC50 (HCT-116): 6.55 µM
- IC50 (U2OS): 2.78 µM
- IC50 (HepG2): 23.6 µM
- IC50 (MDA-MB-231): 12.5 µM

- IC50 (A549): 17.4 µM
Structure (SMILES): C=C1C(=O)O[C@H]2[C@H]1CC/C(COC(=O)c1ccc3ncncc3c1)=C/CC[C@@]1(C)O[C@@H]21
- IC50 (HT-29): 5.82 µM
- IC50 (SW480): 1.9 µM
- IC50 (HCT-116): 6.19 µM
- IC50 (U2OS): 13.9 µM
- IC50 (HepG2): 11.8 µM
- IC50 (MDA-MB-231): 9.01 µM

- IC50 (A549): 3.49 µM
Structure (SMILES): C=C1C(=O)O[C@H]2[C@H]1CC/C(COC(=O)c1ccc3ccccc3c1)=C/CC[C@@]1(C)O[C@@H]21
- IC50 (HT-29): 2.8 µM
- IC50 (SW480): 2.25 µM
- IC50 (HCT-116): 3.05 µM
- IC50 (U2OS): 3.58 µM
- IC50 (HepG2): 8.15 µM
- IC50 (MDA-MB-231): 3.34 µM

- IC50 (A549): 2.65 µM
Structure (SMILES): C=C1C(=O)O[C@H]2[C@H]1CC/C(COC(=O)c1cccc3cccnc13)=C/CC[C@@]1(C)O[C@@H]21
- IC50 (HT-29): 2.65 µM
- IC50 (SW480): 0.49 µM
- IC50 (HCT-116): 4.12 µM
- IC50 (U2OS): 3.54 µM
- IC50 (HepG2): 8.76 µM
- IC50 (MDA-MB-231): 2.2 µM

- IC50 (A549): 2.29 µM
Structure (SMILES): C=C1C(=O)O[C@H]2[C@H]1CC/C(COC(=O)c1cnnc3ccccc13)=C/CC[C@@]1(C)O[C@@H]21
- IC50 (HT-29): 4.27 µM
- IC50 (SW480): 1.33 µM
- IC50 (HCT-116): 3.78 µM
- IC50 (U2OS): 4.01 µM
- IC50 (HepG2): 12.5 µM
- IC50 (MDA-MB-231): 3.68 µM

- IC50 (A549): 60.1 µM
Structure (SMILES): C/C1=C\CC[C@@]2(C)O[C@H]2[C@H]2OC(=O)C(CN3CCN(C(=O)c4ccc5ccccc5n4)CC3)[C@@H]2CC1 (some centres not stated)
- IC50 (HT-29): 54.4 µM
- IC50 (SW480): 23.1 µM
- IC50 (HCT-116): 64.3 µM
- IC50 (U2OS): 23.5 µM
- IC50 (HepG2): 69.5 µM
- IC50 (MDA-MB-231): 87 µM

- IC50 (A549): 14.8 µM
Structure (SMILES): C=C1C(=O)O[C@H]2[C@H]1CC/C(C(=O)CN1CCN(C(=O)c3ccc4ccccc4n3)CC1)=C/CC[C@@]1(C)O[C@@H]21
- IC50 (HT-29): 4.83 µM
- IC50 (SW480): 3.3 µM
- IC50 (HCT-116): 5.27 µM
- IC50 (U2OS): 13 µM
- IC50 (HepG2): 7.75 µM
- IC50 (MDA-MB-231): 8.37 µM

- IC50 (A549): > 100 µM
Structure (SMILES): Cn1c2cc([S+](C)[O-])sc2c2cnn(Cc3cccc(N)c3)c(=O)c21 (configuration not stated)
- IC50 (HT-29): > 100 µM
- IC50 (SW480): 93 µM
- IC50 (HCT-116): 89.9 µM
- IC50 (U2OS): > 100 µM
- IC50 (HepG2): > 100 µM
- IC50 (MDA-MB-231): > 100 µM

- IC50 (A549): 2.95 µM
Structure (SMILES): C=C1C(=O)O[C@H]2[C@H]1CC/C(COC(=O)c1ccc3cccnc3c1)=C/CC[C@@]1(C)O[C@@H]21
- IC50 (HT-29): 2.8 µM
- IC50 (SW480): 0.33 µM
- IC50 (HCT-116): 3.13 µM
- IC50 (U2OS): 1.3 µM
- IC50 (HepG2): 9.84 µM
- IC50 (MDA-MB-231): 1.75 µM

- IC50 (A549): 33.5 µM
Structure (SMILES): C/C1=C\CC[C@@]2(C)O[C@H]2[C@H]2OC(=O)/C(=C\c3ccc4nc[nH]c(=O)c4c3)[C@@H]2CC1
- IC50 (HT-29): 28.6 µM
- IC50 (SW480): 34 µM
- IC50 (HCT-116): 32.9 µM
- IC50 (U2OS): 24.6 µM
- IC50 (HepG2): 86.7 µM
- IC50 (MDA-MB-231): 55.1 µM

- IC50 (A549): 14.2 µM
Structure (SMILES): C=C1C(=O)O[C@H]2[C@H]1CC/C(C(=O)CN1CCN(C(=O)c3ccc4ccccc4n3)CC1C)=C/CC[C@@]1(C)O[C@@H]21 (some centres not stated)
- IC50 (HT-29): 6.34 µM
- IC50 (SW480): 8.64 µM
- IC50 (HCT-116): 6.89 µM
- IC50 (U2OS): 21.7 µM
- IC50 (HepG2): 14 µM
- IC50 (MDA-MB-231): 8.67 µM

- IC50 (A549): 6.69 µM
Structure (SMILES): C=C1C(=O)O[C@H]2[C@H]1CC[C@@]1(COC(=O)c3ccc4ncccc4c3)O[C@@H]1CC[C@@]1(C)O[C@@H]21
- IC50 (HT-29): 0.94 µM
- IC50 (SW480): 2.4 µM
- IC50 (HCT-116): 1.8 µM
- IC50 (U2OS): 6.43 µM
- IC50 (HepG2): 7.13 µM
- IC50 (MDA-MB-231): 6.61 µM

- IC50 (A549): 2.2 µM
Structure (SMILES): C=C1C(=O)O[C@H]2[C@H]1CC/C(COC(=O)c1ccc3nccnc3c1)=C/CC[C@@]1(C)O[C@@H]21
- IC50 (HT-29): 2.52 µM
- IC50 (SW480): 1.25 µM
- IC50 (HCT-116): 2.82 µM
- IC50 (U2OS): 3.18 µM
- IC50 (HepG2): 6.84 µM
- IC50 (MDA-MB-231): 2.97 µM

- IC50 (A549): 1.75 µM
Structure (SMILES): C=C1C(=O)O[C@H]2[C@H]1CC/C(COC(=O)c1ccc3nc(Cl)ccc3c1)=C/CC[C@@]1(C)O[C@@H]21
- IC50 (HT-29): 1.42 µM
- IC50 (SW480): 0.46 µM
- IC50 (HCT-116): 1.77 µM
- IC50 (U2OS): 2.46 µM
- IC50 (HepG2): 4.83 µM
- IC50 (MDA-MB-231): 2.69 µM

- IC50 (A549): 1.58 µM
Structure (SMILES): C=C1C(=O)O[C@H]2[C@H]1C[C@H](OC(=O)c1ccc3ncccc3c1)C(C)=C1CC[C@@](C)(O)[C@@H]12
- IC50 (HT-29): 1.46 µM
- IC50 (SW480): 0.4 µM
- IC50 (HCT-116): 1.1 µM
- IC50 (U2OS): 2.36 µM
- IC50 (HepG2): 4.53 µM
- IC50 (MDA-MB-231): 2.66 µM

- IC50 (A549): 4.52 µM
Structure (SMILES): C=C1C(=O)O[C@H]2[C@H]1CC/C(COC(=O)c1n[nH]c(=O)c3ccccc13)=C/CC[C@@]1(C)O[C@@H]21
- IC50 (HT-29): 6.26 µM
- IC50 (SW480): 2.43 µM
- IC50 (HCT-116): 6.86 µM
- IC50 (U2OS): 7.81 µM
- IC50 (HepG2): 9.63 µM
- IC50 (MDA-MB-231): 6.26 µM

— ChEMBL document CHEMBL4831557, “Parthenolide Derivatives as PKM2 Activators Showing Potential in Colorectal Cancer” (J Med Chem, 2021)
